Inhibition of growth, pest or weed control and melting point data for 16 compounds are collected here from patent US10952436B2, “Microbiocidal quinoline (thio)carboxamide derivatives” (SYNGENTA PARTICIPATIONS AG, priority 2017, dated 2021).

The subject of data set [1] is Magnaporthe grisea (Pyricularia oryzae). The data set is described as follows: microbe, parasite or virus in culture. It counts as cell-based. As to conditions: read-out: control of Magnaporthe grisea.
The subject of data set [2] is Monographella nivalis (Microdochium nivale). The data set is described as follows: Monographella nivalis (Microdochium nivale)/Liquid Culture (Foot Rot Cereals). Format: cell-based. As to conditions: 200 ppm, liquid culture, compared to untreated control, 4-5 days after application, read-out: control of Monographella nivalis.
The subject of data set [3] is Magnaporthe grisea (Pyricularia oryzae). The data set is described as follows: whole plant or invertebrate. It counts as in vivo. The conditions noted are these: foliar, read-out: control of Magnaporthe grisea.
The next data set has as its system Sclerotinia sclerotiorum. The data set is described as follows: Sclerotinia sclerotiorum/Liquid Culture (Cottony Rot). The conditions noted are these: read-out: control of Sclerotinia sclerotiorum.
The subject of data set [4] is Fusarium culmorum. The data set is described as follows: microbe, parasite or virus in culture. It counts as cell-based. The conditions noted are these: read-out: control of Fusarium culmorum.
In data set [5] the test system is Fusarium culmorum. The data set is described as follows: whole plant or invertebrate. It counts as in vivo. The conditions noted are these: in Triticum aestivum, read-out: control of Fusarium culmorum.
In data set [6] the test system is Glomerella lagenarium (Colletotrichum lagenarium). The data set is described as follows: Glomerella lagenarium (Colletotrichum lagenarium)/Liquid Culture (Anthracnose). The conditions noted are these: Colletotrichum orbiculare; 200 ppm; liquid culture, compared to untreated control, 3-4 days after application; read-out: control of Glomerella lagenarium. It counts as cell-based.

For data set [7], the system named is Botryotinia fuckeliana (Botrytis cinerea). The data set is described as follows: Botryotinia fuckeliana (Botrytis cinerea)/Liquid Culture (Gray Mould). The conditions noted are these: 200 ppm, liquid culture, compared to untreated control, 3-4 days after application, read-out: control of Botryotinia fuckeliana. Format: cell-based.
The subject of a further data set is Gaeumannomyces graminis. The data set is described as follows: Gaeumannomyces graminis/Liquid Culture (Take-all of Cereals). The conditions noted are these: 200 ppm, liquid culture, compared to untreated control, 4-5 days after application, read-out: control of Gaeumannomyces graminis. It counts as cell-based.

Structures are written as SMILES.

Description for Sclerotinia sclerotiorum: Mycelia fragments of a newly grown liquid culture of the fungus are directly mixed into nutrient broth (Vogels broth). After placing a (DMSO) solution of test compound into a microtiter plate (96-well format) the nutrient broth containing the fungal material is added. The test plates are incubated at 24° C. and the inhibition of growth is determined photometrically 3-4 days after application.

In turn, `C=C(Cl)CC(C)(Cc1ccccc1)C(=O)Nc1cnc2c(F)cccc2c1C` (stereo not shown) [Compound E-20, 2-benzyl-4-chloro-N-(8-fluoro-4-methyl-3-quinolyl)-2-methyl-pent-4-enamide] came in with a melting point of 124 to 126 °C. Also, the inhibition of growth at 200 ppm in data set [1] is no less than 80%. The inhibition of growth at 200 ppm in data set [2] was no less than 80%. Moreover, the pest or weed control at 200 ppm in [3] is no less than 80%. The inhibition of growth at 20 ppm in the data set with Sclerotinia sclerotiorum is no less than 80%. Besides, the inhibition of growth at 200 ppm in the data set with Fusarium culmorum [4] was no less than 80%. Moreover, the pest or weed control at 200 ppm in the data set on Fusarium culmorum [5] was no less than 80%. The inhibition of growth at 200 ppm in data set [6] was no less than 80%. Further, the inhibition of growth at 200 ppm in data set [7] was no less than 80%.
In the case of `C=C(Cl)CC(C)(Cc1ccccc1)C(=O)Nc1cc2cccc(F)c2nc1C` (stereo not shown) [Compound E-21, 2-benzyl-4-chloro-N-(8-fluoro-2-methyl-3-quinolyl)-2-methyl-pent-4-enamide], the melting point was 121 to 123 °C. For the same compound, the inhibition of growth at 200 ppm in data set [1] was no less than 80%. Besides, the pest or weed control at 200 ppm in [3] was no less than 80%. Moreover, the inhibition of growth at 20 ppm with Sclerotinia sclerotiorum is no less than 80%. In addition, the inhibition of growth at 200 ppm in the data set with Fusarium culmorum [4] was no less than 80%. Further, the pest or weed control at 200 ppm in the data set with Fusarium culmorum [5] was no less than 80%. Moreover, the inhibition of growth at 200 ppm in [6] is no less than 80%. In [7], the inhibition of growth at 200 ppm is no less than 80%.
Compound `Cc1c(NC(=O)C(Cc2ccccc2)CC(F)(F)F)cnc2c(F)cccc12` (stereo not shown) [Compound E-45, 2-benzyl-4,4,4-trifluoro-N-(8-fluoro-4-methyl-3-quinolyl)butanamide] yielded a melting point of 165 to 167 °C. Moreover, the inhibition of growth at 200 ppm in data set [1] was no less than 80%. Further, the pest or weed control at 200 ppm in data set [3] is no less than 80%. The inhibition of growth at 20 ppm with Sclerotinia sclerotiorum is no less than 80%. For the same compound, the inhibition of growth at 200 ppm in the data set with Fusarium culmorum [4] was no less than 80%. Besides, the pest or weed control at 200 ppm with Fusarium culmorum [5] is no less than 80%. For the same compound, the inhibition of growth at 200 ppm in data set [6] is no less than 80%. The inhibition of growth at 200 ppm in [7] is no less than 80%.
On to `Cc1c(NC(=O)C(C)(Cc2ccccc2)CC(F)(F)F)cnc2c(F)cccc12` (stereo not shown) [Compound E-50, 2-benzyl-4,4,4-trifluoro-N-(8-fluoro-4-methyl-3-quinolyl)-2-methyl-butanamide], for which the melting point was 106 to 109 °C. Moreover, the inhibition of growth at 200 ppm in [1] was no less than 80%. Also, the inhibition of growth at 200 ppm in data set [2] is no less than 80%. In addition, the pest or weed control at 200 ppm in data set [3] is no less than 80%. Also, the inhibition of growth at 20 ppm in the data set with Sclerotinia sclerotiorum was no less than 80%. Also, in the data set on Fusarium culmorum [4], the inhibition of growth at 200 ppm was no less than 80%. The pest or weed control at 200 ppm in the data set on Fusarium culmorum [5] was no less than 80%. For the same compound, the inhibition of growth at 200 ppm in [6] is no less than 80%. In addition, in data set [7], the inhibition of growth at 200 ppm was no less than 80%.
Regarding `C=C(C)CC(C)(Cc1ccccc1)C(=O)Nc1cc2cccc(F)c2nc1C` (stereo not shown) [Compound E-66, 2-benzyl-N-(8-fluoro-2-methyl-3-quinolyl)-2,4-dimethyl-pent-4-enamide], the inhibition of growth at 200 ppm (in data set [1]; in data set [2]; in the data set on Gaeumannomyces graminis; in the data set on Fusarium culmorum [4]; in [6]; in data set [7]) was no less than 80% throughout. In addition, the pest or weed control at 200 ppm in the data set on Fusarium culmorum [5] is no less than 80%.
With `CC(C)(Cc1ccccc1)C(=O)Nc1cnc2c(F)cccc2c1` [Compound E-69, N-(8-fluoro-3-quinolyl)-2,2-dimethyl-3-phenyl-propanamide], the inhibition of growth at 200 ppm (in data set [2]; in the data set with Gaeumannomyces graminis; with Fusarium culmorum [4]; in data set [6]; in data set [7]) was no less than 80% each time. Further, the pest or weed control at 200 ppm in the data set with Fusarium culmorum [5] is no less than 80%.
`CC1(CC(C)(Cc2ccccc2)C(=O)Nc2cnc3c(F)cccc3c2)CC1` (stereo not shown) [Compound E-70, 2-benzyl-N-(8-fluoro-3-quinolyl)-2-methyl-3-(1-methylcyclopropyl) propanamide] returned a melting point of 149 to 151 °C. In data set [1], the inhibition of growth at 200 ppm is no less than 80%. Moreover, in the data set with Gaeumannomyces graminis, the inhibition of growth at 200 ppm is no less than 80%. The inhibition of growth at 200 ppm in the data set with Fusarium culmorum [4] was no less than 80%. Moreover, the inhibition of growth at 200 ppm in [6] is no less than 80%. For the same compound, in [7], the inhibition of growth at 200 ppm is no less than 80%.
As to `CC(Cc1ccccc1)(CC1CC1(F)F)C(=O)Nc1cnc2c(F)cccc2c1` (stereo not shown) [Compound E-72, 2-benzyl-3-(2,2-difluorocyclopropyl)-N-(8-fluoro-3-quinolyl)-2-methyl-propanamide], the inhibition of growth at 200 ppm (in data set [1]; in data set [2]; in the data set on Gaeumannomyces graminis; in the data set with Fusarium culmorum [4]; in data set [6]; in data set [7]) was no less than 80% throughout.
Regarding `CC(Cc1ccccc1)(CC1CC1(Cl)Cl)C(=O)Nc1cnc2c(F)cccc2c1` (stereo not shown) [Compound E-75, 2-benzyl-3-(2,2-dichlorocyclopropyl)-N-(8-fluoro-3-quinolyl)-2-methyl-propanamide], the inhibition of growth at 200 ppm (in data set [1]; in the data set with Gaeumannomyces graminis; in the data set with Fusarium culmorum [4]; in data set [6]; in [7]) was no less than 80% each time.
With `CCCC(C)(Cc1ccccc1)C(=O)Nc1cnc2c(F)cccc2c1` (stereo not shown) [Compound E-77, 2-benzyl-N-(8-fluoro-3-quinolyl)-2-methyl-pentanamide], the inhibition of growth at 200 ppm (in data set [1]; in data set [2]; in the data set with Gaeumannomyces graminis; in the data set with Fusarium culmorum [4]; in [6]; in [7]) was no less than 80% throughout. Further, in the data set with Fusarium culmorum [5], the pest or weed control at 200 ppm is no less than 80%.
Turning to `CC(C)CC(C#N)(Cc1ccccc1)C(=O)Nc1cnc2c(F)cccc2c1` (stereo not shown) [Compound E-83, 2-benzyl-2-cyano-N-(8-fluoro-3-quinolyl)-4-methyl-pentanamide], the inhibition of growth at 200 ppm (in data set [1]; in data set [2]; with Gaeumannomyces graminis; with Fusarium culmorum [4]; in data set [6]; in data set [7]) was no less than 80% in each case. In addition, the pest or weed control at 200 ppm in the data set with Fusarium culmorum [5] is no less than 80%.
For the compound `CC(C)CC(C)(Cc1ccccc1)C(=O)Nc1cnc2ccccc2c1` (stereo not shown) [Compound E-85, 2-benzyl-2,4-dimethyl-N-(3-quinolyl)pentanamide], the melting point is 147 to 148 °C. Besides, the inhibition of growth at 200 ppm with Gaeumannomyces graminis was no less than 80%. The inhibition of growth at 200 ppm with Fusarium culmorum [4] was no less than 80%. The inhibition of growth at 200 ppm in data set [6] was no less than 80%. The inhibition of growth at 200 ppm in data set [7] is no less than 80%.
`CC1(C[C@](C)(Cc2ccccc2)C(=O)Nc2cnc3c(F)cccc3c2)CC1` [Compound F-9, (2R)-2-benzyl-N-(8-fluoro-3-quinolyl)-2-methyl-3-(1-methylcyclopropyl) propanamide]: the melting point fell in the range of 62 to 64 °C. Besides, the inhibition of growth at 200 ppm in data set [1] is no less than 80%. For the same compound, the inhibition of growth at 200 ppm in [2] was no less than 80%. Besides, the pest or weed control at 200 ppm in data set [3] is no less than 80%. The inhibition of growth at 20 ppm in the data set on Sclerotinia sclerotiorum is no less than 80%. In addition, the inhibition of growth at 200 ppm in the data set on Fusarium culmorum [4] is no less than 80%. Moreover, the pest or weed control at 200 ppm in the data set with Fusarium culmorum [5] is no less than 80%. For the same compound, the inhibition of growth at 200 ppm in data set [6] was no less than 80%. Moreover, in data set [7], the inhibition of growth at 200 ppm is no less than 80%.
`Cc1nc2c(F)cccc2cc1NC(=O)[C@](C)(Cc1ccccc1)CC(F)(F)F` [Compound F-11, (2R)-2-benzyl-4,4,4-trifluoro-N-(8-fluoro-2-methyl-3-quinolyl)-2-methyl-butanamide] came in with a melting point of 137 to 139 °C. The inhibition of growth at 200 ppm in [1] is no less than 80%. Also, the pest or weed control at 200 ppm in data set [3] is no less than 80%. For the same compound, the inhibition of growth at 20 ppm with Sclerotinia sclerotiorum was no less than 80%. For the same compound, in the data set with Fusarium culmorum [4], the inhibition of growth at 200 ppm was no less than 80%. The pest or weed control at 200 ppm with Fusarium culmorum [5] was no less than 80%. In data set [6], the inhibition of growth at 200 ppm was no less than 80%. Moreover, the inhibition of growth at 200 ppm in data set [7] was no less than 80%.
For the compound `Cc1nc2c(F)cccc2cc1NC(=O)[C@@](C)(Cc1ccccc1)CC(F)(F)F` [Compound F-12, (2S)-2-benzyl-4,4,4-trifluoro-N-(8-fluoro-2-methyl-3-quinolyl)-2-methyl-butanamide], the melting point lay in the range of 135 to 136 °C. Besides, in [1], the inhibition of growth at 200 ppm is no less than 80%. In data set [2], the inhibition of growth at 200 ppm is no less than 80%. In addition, the pest or weed control at 200 ppm in [3] is no less than 80%. Besides, in the data set on Sclerotinia sclerotiorum, the inhibition of growth at 20 ppm was no less than 80%. Besides, in the data set with Fusarium culmorum [4], the inhibition of growth at 200 ppm was no less than 80%. Moreover, in the data set on Fusarium culmorum [5], the pest or weed control at 200 ppm was no less than 80%. For the same compound, the inhibition of growth at 200 ppm in data set [6] is no less than 80%. For the same compound, in data set [7], the inhibition of growth at 200 ppm is no less than 80%.
Regarding `CC(C)C[C@@](C)(Cc1ccccc1)C(=O)Nc1cnc2c(F)cccc2c1` [Compound F-20, (2S)-2-benzyl-N-(8-fluoro-3-quinolyl)-2,4-dimethyl-pentanamide], the inhibition of growth at 200 ppm (in data set [2]; in the data set with Gaeumannomyces graminis; with Fusarium culmorum [4]; in [6]; in data set [7]) was no less than 80% in each case. The pest or weed control at 200 ppm in the data set with Fusarium culmorum [5] is no less than 80%.
